In this test the test system is HCV 1b_Huh-Luc/Neo-ET cell line persistently expressing a bicistronic genotype 1b replicon in Huh 7 cells. Nature of the test: HCV replicon assay, luciferase enzyme activity readout. The format is cell-based. Particulars: Hepatitis C virus, 72 h incubation, average EC50 range, read-out: Inhibition of HCV genotype 1b. The protocol:
Biological activity of the compounds of the invention was determined using an HCV replicon assay. The HCV 1b_Huh-Luc/Neo-ET cell line persistently expressing a bicistronic genotype 1b replicon in Huh 7 cells was obtained from ReBLikon GMBH. This cell line was used to test compound inhibition using luciferase enzyme activity readout as a measurement of compound inhibition of replicon levels.
On Day 1 (the day after plating cells), each compound is added in triplicate to the cells. Plates are incubated for 72 h prior to determining luciferase levels. Enzyme activity was measured using a Bright-Glo Kit (cat. number E2620) manufactured by Promega Corporation. The following equation was used to generate a percent control value for each compound. % Control=(Compound Luciferase Level/Control Luciferase Level)*100
The EC50 value was determined using GraphPad Prism and the following equation: Y=Bottom asymptote+(Top asymptote−Bottom asymptote)/(1+10^((Log EC50−X)*HillSlope))
EC50 values of compounds are determined several times in the replicon assay to generate average EC50 values. […]
(A replicon is a self-replicating genome or part of one, used to study replication in cells.)

On to `CC[C@H](C)[C@H](NC(=O)OC)C(=O)N1CCC[C@H]1c1ncc(-c2cc3c(cc2F)Cc2cc(-c4cnc([C@@H]5CCCN5C(=O)[C@@H](NC(=O)OC)C5CCOCC5)[nH]4)ccc2O3)[nH]1` [Compound 59], for which the EC50 is < 1 nM. With `COC(=O)N[C@H](C(=O)N1CCC[C@H]1c1ncc(-c2ccc3c(c2)Cc2cc(Cl)c(-c4cnc([C@@H]5CCCN5C(=O)[C@@H](NC(=O)OC)C(C)C)[nH]4)cc2O3)[nH]1)C(C)C` [Compound 61] the figure was < 1 nM. The result for `COC(=O)N[C@@H](C)C(=O)N1CCC[C@H]1c1ncc(-c2ccc3oc4cc(-c5cnc([C@@H]6CCCN6C(=O)[C@@H](NC(=O)OC)C(C)C)[nH]5)ccc4c(=O)c3c2)[nH]1` [Compound 20] reads < 1 nM. With `COC(=O)N[C@H](C(=O)N1CCC[C@H]1c1ncc(-c2ccc3oc4cc(-c5cnc([C@@H]6CCCN6C(=O)[C@@H](NC(=O)OC)C6CCOCC6)[nH]5)ccc4c(=O)c3c2)[nH]1)C(C)C` [Compound 17] the figure was < 1 nM; with `COC(=O)N[C@H](C(=O)N1CCC[C@H]1c1ncc(-c2ccc3c(c2)Oc2ccc(-c4cnc([C@@H]5CCCN5C(=O)[C@@H](NC(=O)OC)C(C)C)[nH]4)cc2C3(C)C)[nH]1)C(C)C` [Compound 10], < 1 nM. Take `COC(=O)N[C@H](C(=O)N1CSC[C@H]1c1ncc(-c2ccc3c(c2)Oc2ccc(-c4cnc([C@@H]5CSCN5C(=O)[C@@H](NC(=O)OC)C5CCCC5)[nH]4)cc2O3)[nH]1)C1CCCC1` [Compound 66]: the EC50 is < 1 nM. With `COC(=O)N[C@H](C(=O)N1CCC[C@H]1c1ncc(-c2ccc3c(=O)c4cc(-c5cnc([C@@H]6CCCN6C(=O)[C@H](NC(=O)OC)c6ccccc6)[nH]5)ccc4oc3c2)[nH]1)C(C)C` [Compound 15] the figure was < 1 nM; with `CC[C@H](C)[C@H](NC(=O)OC)C(=O)N1CCC[C@H]1c1ncc(-c2ccc3c(c2)Oc2ccc(-c4cnc([C@@H]5CCCN5C(=O)[C@@H](NC(=O)OC)[C@@H](C)CC)[nH]4)cc2O3)[nH]1` [Compound 46], < 1 nM; with `CC[C@H](C)[C@H](NC(=O)OC)C(=O)N1CSC[C@H]1c1ncc(-c2ccc3c(c2)Oc2ccc(-c4cnc([C@@H]5CSCN5C(=O)[C@@H](NC(=O)OC)[C@@H](C)CC)[nH]4)cc2O3)[nH]1` [Compound 67], < 1 nM. With `CC[C@H](C)[C@H](NC(=O)OC)C(=O)N1CCC[C@H]1c1ncc(-c2ccc3c(c2)Cc2cc(F)c(-c4cnc([C@@H]5CCCN5C(=O)[C@@H](NC(=O)OC)[C@@H](C)OC)[nH]4)cc2O3)[nH]1` [Compound 41] the figure was < 1 nM.

As to `COC(=O)N[C@H](C(=O)N1CCC[C@H]1c1ncc(-c2ccc3c(c2)Oc2ccc(-c4cnc([C@@H]5CCCN5C(=O)[C@@H](NC(=O)OC)C(C)C)[nH]4)cc2O3)[nH]1)C(C)C` [Compound 3], the EC50 is < 1 nM. On to `COC(=O)N[C@H](C(=O)N1CCC[C@H]1c1ncc(-c2ccc3c(c2)Cc2cc(F)c(-c4cnc([C@@H]5CCCN5C(=O)[C@@H](NC(=O)OC)[C@@H](C)OC)[nH]4)cc2O3)[nH]1)[C@@H](C)OC` [Compound 40], for which the EC50 is < 1 nM. The result for `O=C(N[C@@H](C(=O)N1CCC[C@H]1c1ncc(-c2ccc3oc4cc(-c5cnc([C@@H]6CCCN6C(=O)[C@H](NC(=O)OC6CCOCC6)c6ccccc6)[nH]5)c(F)cc4c(=O)c3c2)[nH]1)c1ccccc1)OC1CCOCC1` [Compound 25] reads < 1 nM. For the compound `COC(=O)N[C@H](C(=O)N1CCC[C@H]1c1ncc(-c2cc3c(cc2F)Cc2cc(-c4cnc([C@@H]5CCCN5C(=O)[C@@H](NC(=O)OC)[C@@H](C)OC)[nH]4)ccc2O3)[nH]1)C(C)C` [Compound 29], the EC50 was < 1 nM.

`C=CC[C@H](NC(=O)OC)C(=O)N1CCC[C@H]1c1ncc(-c2ccc3c(c2)Oc2ccc(-c4cnc([C@@H]5CCCN5C(=O)[C@H](CC=C)NC(=O)OC)[nH]4)cc2O3)[nH]1` [Compound 55]: the EC50 was < 1 nM. With `COC(=O)N[C@H](C(=O)N[C@@H](C)c1ncc(-c2ccc3c(c2)Oc2ccc(-c4cnc([C@H](C)NC(=O)[C@@H](NC(=O)OC)C(C)C)[nH]4)cc2O3)[nH]1)C(C)C` [Compound 39], the EC50 is < 1 nM. Regarding `COC(=O)N[C@H](C(=O)N1CCC[C@H]1c1ncc(-c2ccc3oc4cc(-c5cnc([C@@H]6CCCN6C(=O)[C@@H](NC(=O)OC)C(C)C)[nH]5)c(F)cc4c(=O)c3c2)[nH]1)C(C)C` [Compound 22], the EC50 was < 1 nM. With `COC(=O)N[C@H](C(=O)N1CCC[C@H]1c1ncc(-c2ccc3c(c2)Cc2cc(-c4cnc([C@@H]5CCCN5C(=O)[C@@H](NC(=O)OC)C(C)C)[nH]4)ccc2O3)[nH]1)C(C)C` [Compound 4] the figure was 10 to 999 nM. With `COC[C@H](NC(=O)OC)C(=O)N1CCC[C@H]1c1ncc(-c2ccc3c(c2)Cc2cc(F)c(-c4cnc([C@@H]5CCCN5C(=O)[C@@H](NC(=O)OC)C(C)C)[nH]4)cc2O3)[nH]1` [Compound 45] the figure was < 1 nM; with `COC(=O)N[C@H](C(=O)N1CCC[C@H]1c1ncc(-c2ccc3c(c2)Cc2ccc(-c4cnc([C@@H]5CCCN5C(=O)[C@@H](NC(=O)OC)C(C)C)[nH]4)cc2O3)[nH]1)C(C)C` [Compound 6], < 1 nM. With `COC(=O)N[C@H](C(=O)N1CCC[C@H]1c1ncc(-c2ccc3c(c2)CN(C)c2ccc(-c4cnc([C@@H]5CCCN5C(=O)[C@@H](NC(=O)OC)C(C)C)[nH]4)cc2CN3C)[nH]1)C(C)C` [Compound 13] the figure was < 1 nM.

In the case of `COC(=O)N[C@H](C(=O)N1CCC[C@H]1c1ncc(-c2ccc3c(c2)Oc2ccc(-c4cnc([C@@H]5CCCN5C(=O)[C@@H](NC(=O)OC)C(C)C)[nH]4)cc2C(=O)N3)[nH]1)C(C)C` [Compound 14], the EC50 is 10 to 999 nM.

Consider `COC(=O)N[C@H](C(=O)N1CCC[C@H]1c1ncc(-c2ccc3c(=O)c4cc(-c5cnc([C@@H]6CCCN6C(=O)[C@@H](NC(=O)OC)C(C)C)[nH]5)ccc4oc3c2)[nH]1)C(C)C` [Compound 8], for which the EC50 is < 1 nM. With `COC(=O)N[C@H](C(=O)N1CCC[C@H]1c1ncc(-c2cc3c(cc2F)Cc2cc(-c4cnc([C@@H]5CCCN5C(=O)[C@@H](NC(=O)OC)C5CCOCC5)[nH]4)ccc2O3)[nH]1)C(C)C` [Compound 44] the figure was < 1 nM; with `CC[C@H](C)[C@H](NC(=O)OC)C(=O)N1CCC[C@H]1c1ncc(-c2ccc3c(c2)Cc2cc(F)c(-c4cnc([C@@H]5CCCN5C(=O)[C@@H](NC(=O)OC)[C@@H](C)CC)[nH]4)cc2O3)[nH]1` [Compound 53], < 1 nM. With `COC(=O)N[C@H](C(=O)N1CCC[C@H]1c1ncc(-c2ccc3c(c2)c(=O)c2ccc(-c4cnc([C@@H]5CCCN5C(=O)[C@@H](NC(=O)OC)C(C)C)[nH]4)cc2n3C)[nH]1)C(C)C` [Compound 11] the figure was < 1 nM.

In the case of `CC[C@H](C)[C@H](NC(=O)OC)C(=O)N1CCC[C@H]1c1ncc(-c2ccc3c(c2)Cc2ccc(-c4cnc([C@@H]5CCCN5C(=O)[C@@H](NC(=O)OC)[C@@H](C)CC)[nH]4)cc2O3)[nH]1` [Compound 31], the EC50 is < 1 nM.

As for `COC(=O)N[C@H](C(=O)N1CCC[C@H]1c1ncc(-c2ccc3c(c2)Oc2ccc(-c4cnc([C@@H]5CCCN5C(=O)[C@@H](NC(=O)OC)C5CCOCC5)[nH]4)cc2O3)[nH]1)C1CCOCC1` [Compound 35], the EC50 is < 1 nM. With `COC[C@H](NC(=O)OC)C(=O)N1CCC[C@H]1c1ncc(-c2ccc3c(c2)Cc2cc(F)c(-c4cnc([C@@H]5CCCN5C(=O)[C@@H](NC(=O)OC)[C@@H](C)OC)[nH]4)cc2O3)[nH]1` [Compound 43] the figure was < 1 nM.

Source of the values: patent US9150554B2, “Fused ring inhibitors of hepatitis C” (Presidio Pharmaceuticals, Inc., priority 2009, dated 2015).
